Measurements: ChEMBL document CHEMBL1759846, “Identification of potent, soluble, and orally active TRPV1 antagonists” (Bioorg Med Chem Lett, 2011)
Converted amounts (≈) assume the structure as drawn. The source made the active and inactive calls. The rule behind the calls is not given here.

Assays:
[1] = biological target: Transient receptor potential cation channel subfamily V member 1 (Homo sapiens, UniProt Q8NER1); test: Antagonist activity at human TRPV1 expressed in CHO-K1 cells assessed as inhibition of capsaicin-induced intracellular Ca2+ influx by FLIPR assay; assay type: functional, cell-based
[2] = Aqueous solubility of the compound in 0.05 M phosphate buffer at pH 7.4 by shake-flask method; assay type: physicochemical
[3] = Octanol-water partition coefficient, log D of the compound at pH 7.4 by RP-HPLC analysis; assay type: physicochemical
[4] = Intrinsic clearance in human liver microsomes; assay type: ADME, Microsome
[5] = Intrinsic clearance in rat liver microsomes; assay type: ADME, Microsome
Hepatocyte = test: Intrinsic clearance in rat hepatocytes; assay type: ADME, cell-based, Liver
[6] = Plasma protein binding in human; assay type: ADME, cell-free; conditions: read-out: PPB (converted)
[7] = Plasma protein binding in Wistar rat; assay type: ADME, cell-free; conditions: read-out: PPB (converted)
[8] = Clearance in Wistar rat at 10 mg/kg, po and 2 mg/kg, iv; assay type: ADME, organism-based; conditions: in vivo
[9] = Volume of distribution at steady state in Wistar rat at 10 mg/kg, po and 2 mg/kg, iv; assay type: ADME, organism-based; conditions: in vivo, read-out: Vdss
[10] = Half life in Wistar rat plasma at 10 mg/kg, po and 2 mg/kg, iv; assay type: ADME, organism-based
[11] = Cmax in Wistar rat at 10 mg/kg, po; assay type: ADME, organism-based; design: dose 10 mg/kg, route oral; conditions: in vivo
[12] = Tmax in Wistar rat at 10 mg/kg, po; assay type: ADME, organism-based; design: dose 10 mg/kg, route oral; conditions: in vivo
[13] = Oral bioavailability in Wistar rat at 10 mg/kg; assay type: ADME, organism-based; conditions: in vivo
Rattus norvegicus [14] = test: Antiinflammatory activity against capsaicin-induced thermal hyperalgesia in rat assessed as paw withdrawal latency at 3 to 30 umol/kg, po administered 2 hrs before capsaicin challenge measured after 15 mins; assay type: functional, organism-based
Rattus norvegicus [15] = test: Antiinflammatory activity against capsaicin-induced thermal hyperalgesia in po dosed rat assessed as paw withdrawal latency administered 2 hrs before capsaicin challenge measured after 15 mins; assay type: functional

Chain of Transient receptor potential cation channel subfamily V member 1 (Q8NER1 whole entry): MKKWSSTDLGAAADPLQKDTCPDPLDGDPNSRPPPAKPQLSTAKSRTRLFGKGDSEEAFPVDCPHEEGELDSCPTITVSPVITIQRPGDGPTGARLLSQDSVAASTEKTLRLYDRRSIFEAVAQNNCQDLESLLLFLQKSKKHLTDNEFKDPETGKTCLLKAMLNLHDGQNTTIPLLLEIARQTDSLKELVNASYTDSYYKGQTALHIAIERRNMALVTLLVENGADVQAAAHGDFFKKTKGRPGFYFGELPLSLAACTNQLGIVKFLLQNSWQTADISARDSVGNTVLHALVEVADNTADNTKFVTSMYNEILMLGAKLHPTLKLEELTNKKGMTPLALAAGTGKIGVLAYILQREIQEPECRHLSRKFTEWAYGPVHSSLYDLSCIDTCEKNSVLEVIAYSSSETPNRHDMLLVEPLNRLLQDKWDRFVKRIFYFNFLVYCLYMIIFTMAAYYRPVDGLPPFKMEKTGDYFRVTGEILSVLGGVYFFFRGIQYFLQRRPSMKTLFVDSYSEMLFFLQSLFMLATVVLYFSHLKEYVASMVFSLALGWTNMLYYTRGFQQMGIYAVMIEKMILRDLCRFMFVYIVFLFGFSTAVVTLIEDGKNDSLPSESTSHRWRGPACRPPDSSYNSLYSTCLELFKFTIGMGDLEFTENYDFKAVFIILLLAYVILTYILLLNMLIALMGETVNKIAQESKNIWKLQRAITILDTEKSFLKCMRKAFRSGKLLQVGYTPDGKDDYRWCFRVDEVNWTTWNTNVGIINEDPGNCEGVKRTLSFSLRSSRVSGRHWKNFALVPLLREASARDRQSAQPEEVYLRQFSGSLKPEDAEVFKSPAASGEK

Compound	IC50 [1]	solubility thermodynamic [2]	logD [3]	microsomal CLint [4]	microsomal CLint [5]	fraction unbound [6]	fraction unbound [7]	also measured
COCCNCc1c(C(=O)N[C@@H]2CCC[C@H](O)C2)noc1-c1ccc(C(F)(F)F)cc1	126 nM	80 µg/mL (≈ 181 µM)	3.7					
CN(Cc1c(C(=O)N[C@@H]2CCC[C@H](O)C2)noc1-c1ccc(C(F)(F)F)cc1)C[C@@H]1CCCO1	5.01 nM	31 µg/mL (≈ 64.4 µM)	3.6					
COCCN(C)Cc1c(C(=O)N[C@@H]2CCC[C@H](O)C2)noc1-c1ccc(C(F)(F)F)cc1	7.94 nM	83 µg/mL (≈ 182 µM)	4					
O=C(N[C@@H]1CCC[C@H](O)C1)c1noc(-c2ccc(C(F)(F)F)cc2)c1CNC1CCC1	15.8 nM	26 µg/mL (≈ 59.4 µM)	4.3					
CCN(Cc1c(C(=O)N[C@@H]2CCC[C@H](O)C2)noc1-c1ccc(C(F)(F)F)cc1)C(C)C	25.1 nM	85 µg/mL (≈ 187 µM)	4.1					
O=C(N[C@@H]1CCC[C@H](O)C1)c1noc(-c2ccc(C(F)(F)F)cc2)c1CNCC1CC1		77 µg/mL (≈ 176 µM)	3.5	48 µL/min/mg	55 µL/min/mg			
CN(CCS(C)(=O)=O)Cc1c(C(=O)N[C@@H]2CCC[C@H](O)C2)noc1-c1ccc(C(F)(F)F)cc1	1260 nM	26 µg/mL (≈ 51.6 µM)	3.6					
O=C(N[C@@H]1CCC[C@H](O)C1)c1noc(-c2ccc(C(F)(F)F)cc2)c1CNCC1CCC1	1.26 nM		4.4	21 µL/min/mg	144 µL/min/mg			
CC(C)N(C)Cc1c(C(=O)N[C@@H]2CCC[C@H](O)C2)noc1-c1ccc(C(F)(F)F)cc1	25.1 nM	80 µg/mL (≈ 182 µM)	4					
O=C(N[C@@H]1CCC[C@H](O)C1)c1noc(-c2ccc(C(F)(F)F)cc2)c1CNC1CC1	3.16 nM	21 µg/mL (≈ 49.6 µM)	4.5	17 µL/min/mg	< 12 µL/min/mg	0.118	0.064	CL (Hepatocyte): < 6 µL/min
CN(Cc1c(C(=O)N[C@@H]2CCC[C@H](O)C2)noc1-c1ccc(C(F)(F)F)cc1)C1CCOCC1	79.4 nM	82 µg/mL (≈ 170 µM)	3.7					
O=C(N[C@@H]1CCC[C@H](O)C1)c1noc(-c2ccc(C(F)(F)F)cc2)c1CNCC(O)C(F)(F)F (some centres undefined)	10 nM	87 µg/mL (≈ 176 µM)	4.7					
C[C@H](NCc1c(C(=O)N[C@@H]2CCC[C@H](O)C2)noc1-c1ccc(C(F)(F)F)cc1)C(F)(F)F	0.158 nM	3.5 µg/mL (≈ 7.3 µM)	5.6	66 µL/min/mg	49 µL/min/mg	0.048	0.037	
CC(C)CNCc1c(C(=O)N[C@@H]2CCC[C@H](O)C2)noc1-c1ccc(C(F)(F)F)cc1	1 nM	78 µg/mL (≈ 177 µM)	4.3	12 µL/min/mg	107 µL/min/mg	0.177	0.242	CL (Hepatocyte): 12 µL/min; clearance [8]: 69 mL/min/kg; Vd [9]: 7.6 L/kg; half-life [10]: 4 h; Cmax [11]: 420 nM; Tmax [12]: 2 h; bioavailability [13]: 33%; Activity (Rattus norvegicus [14]): Active; MED (Rattus norvegicus [15]): 30 µmol/kg
CC(C)(CO)CNCc1c(C(=O)N[C@@H]2CCC[C@H](O)C2)noc1-c1ccc(C(F)(F)F)cc1	3.16 nM	89 µg/mL (≈ 190 µM)	3.5	12 µL/min/mg	93 µL/min/mg	0.361	0.168	CL (Hepatocyte): 10 µL/min
CC(C)[C@H](CO)NCc1c(C(=O)N[C@@H]2CCC[C@H](O)C2)noc1-c1ccc(C(F)(F)F)cc1	2.51 nM	79 µg/mL (≈ 168 µM)	4.2	12 µL/min/mg	41 µL/min/mg	0.256	0.116	clearance [8]: 13.5 mL/min/kg; Vd [9]: 3.5 L/kg; half-life [10]: 4.3 h; Cmax [11]: 230 nM; Tmax [12]: 1.5 h; bioavailability [13]: 4%
CN(Cc1c(C(=O)N[C@@H]2CCC[C@H](O)C2)noc1-c1ccc(C(F)(F)F)cc1)[C@@H]1CCOC1	12.6 nM	6.6 µg/mL (≈ 14.1 µM)	4.5					
CC(C)NCc1c(C(=O)N[C@@H]2CCC[C@H](O)C2)noc1-c1ccc(C(F)(F)F)cc1		82 µg/mL (≈ 193 µM)	3	< 12 µL/min/mg	< 12 µL/min/mg	0.25	0.271	CL (Hepatocyte): < 6 µL/min; clearance [8]: 12.5 mL/min/kg; Vd [9]: 5.9 L/kg; half-life [10]: 7.9 h; Cmax [11]: 720 nM; Tmax [12]: 2 h; bioavailability [13]: 20%
CC(C)[C@@H](CO)NCc1c(C(=O)N[C@@H]2CCC[C@H](O)C2)noc1-c1ccc(C(F)(F)F)cc1	10 nM	81 µg/mL (≈ 173 µM)	4.1					
NC(=O)C1CCN(Cc2c(C(=O)N[C@@H]3CCC[C@H](O)C3)noc2-c2ccc(C(F)(F)F)cc2)CC1	3160 nM	30 µg/mL (≈ 60.7 µM)	3.6					
